Assay results: patent US20220402917A1, “COMPOUND AS SMALL MOLECULE INHIBITOR PD-1/PD-L1 AND APPLICATION THEREOF” (MEDSHINE DISCOVERY INC., priority 2019, published 2022)

Columns and labels:
PD1/PD-L1 [1] = target: T1, PD1/PD-L1 (Homo sapiens, UniProt Q9NZQ7); experiment: PD-1/PD-L1 homogeneous time-resolved fluorescence (HTRF) binding experiment; set-up: purchased BPS Biosciences; details: HTRF (TR-FRET), PD-L1-biotin, PD1-Eu
Excerpt: Experimental Example 1: PD-1/PD-L1 Homogenouse Time-Resolved Fluorescence (HTRF) Binding Experiment
When the PD-1 molecule as the donor is very close to the PD-L1 molecule as the acceptor, the donor molecule will transfer the energy to the receptor molecule, which in turn causes the receptor molecule to emit fluorescence. The ability of small molecules to prevent the binding of PD-L1 to PD-1 can be tested by detecting the intensity of fluorescence. A homogeneous time-resolved fluorescence (HTRF) binding experiment is used to detect the ability of the compounds of the present disclosure to inhibit the binding of PD-1/PD-L1.
PD1/PD-L1 TR-FRET detection kit was purchased from BPS Biosciences. Nivo multi-label analyzer (PerkinElmer).
PD1-Eu, Dye-labeled acceptor, PD-L1-biotin and compounds to be tested were diluted with the buffer in the kit. The compounds to be tested were subjected to 5-fold dilution to eight concentration gradients with a row gun. That is, from 40 μM to 0.5 nM, the DMSO concentration was 4%, and a double-well experiment was set up. 5 μL of inhibitor with each concentration gradient were added to the microwell plate, and 5 μL buffer containing 4% DMSO and 5 μL PD-L1-biotin (PD-L1-biotin) (60 nM) were added into well with the maximum signal (Max) and the well with the minimum signal (Min), only 5 μL of buffer was added to the well with the minimum signal (Min), and the incubation was conducted at 25° C. for 20 minutes. After the incubation was completed, 5 μL of diluted PD1-Eu (10 nM) and […] were added to each well. The reaction system was placed at 25° C. for 90 minutes. The TR-FRET signal was read by a multi-label analyzer after the reaction was completed.
Using the equation (sample−Min)/(Max−Min)×100% to convert the raw data into inhibition rate, and the IC50 value can be obtained by curve fitting with four parameters (obtained from log(inhibitor) vs. response—Variable slope mode in GraphPad Prism). Table 1 provides the inhibitory activity of the compounds of the examples of the present disclosure on PD1/PD-L1 binding
Target sequence in this assay (Q9NZQ7 19-239 limits assumed): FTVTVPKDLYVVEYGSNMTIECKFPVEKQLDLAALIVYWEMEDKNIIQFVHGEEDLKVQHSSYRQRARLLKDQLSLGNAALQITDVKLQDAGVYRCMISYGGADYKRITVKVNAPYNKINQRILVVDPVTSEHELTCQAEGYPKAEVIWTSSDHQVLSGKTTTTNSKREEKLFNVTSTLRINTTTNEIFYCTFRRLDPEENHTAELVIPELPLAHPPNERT

[2] = target: T2, PD-L1 in MDA-MR-231 cells (Homo sapiens, UniProt Q9NZQ7); experiment: Effect on expression level of PD-L1 in MDA-MR-231 cells (FACS); format: cell-based; details: 24 hours incubation, FACS detection of cell surface PD-L1
T2 construct: endogenous in cells; host or cells: MDA-MB-231
Method in brief: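 MDA-MB-231 cells (1×10^5/well) were incubated 24 h at 37 °C with 5-fold serially diluted compounds. Cells were detached with 10 mM EDTA, then stained with anti-human PD-L1 and LIVE/DEAD dye (4 °C, 30 min) and fixed. Surface PD-L1 was measured by flow cytometry.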

PD1/PD-L1 [3] = target: T1, PD1/PD-L1; experiment: NFAT activity test (TCR Activitor/PD-L1 CHO cells with PD-1/NFAT Reporter-Jurkat cells); format: cell-based; set-up: host or cells: TCR Activitor/PD-L1 CHO cells; PD-1/NFAT Reporter-Jurkat cells; details: TCR Activitor/PD-L1 CHO cells + PD-1/NFAT Reporter-Jurkat cells, 5 hours, luciferase
Method in brief: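 TCR activator/PD-L1 CHO cells were pretreated 30 min at 37 °C with compound (20 μM to 0.25 nM, 5-fold steps, 2% DMSO). PD-1/NFAT reporter Jurkat cells were then added for 5 h at 37 °C. NFAT-driven luciferase read by Bright-Glo luminescence, normalised to Min/Max, IC50 from 4-parameter fit.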
Target sequence in this assay (Q9NZQ7 19-290): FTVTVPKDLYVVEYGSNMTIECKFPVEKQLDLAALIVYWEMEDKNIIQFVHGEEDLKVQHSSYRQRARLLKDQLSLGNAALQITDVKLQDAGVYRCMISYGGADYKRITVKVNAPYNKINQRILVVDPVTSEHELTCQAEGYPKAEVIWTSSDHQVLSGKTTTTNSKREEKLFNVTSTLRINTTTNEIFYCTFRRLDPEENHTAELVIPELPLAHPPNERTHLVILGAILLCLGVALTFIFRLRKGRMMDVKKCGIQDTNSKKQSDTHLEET

T2 sequence (Q9NZQ7 19-290): as above

IC50 (PD1/PD-L1 [1]): 3.68 nM
IC50 [2]: 0.22 nM
Maximum effect (induction fold) (PD1/PD-L1 [3]): 4.84 induction fold
IC50 (PD1/PD-L1 [3]; read-out: IC50, inhibitory activity on PD1/PD-L1 binding (NFAT activity test)): 18.4 nM
SMILES: Cc1cc(C(=O)Nc2cccc(-c3cccc(Nc4nc(C(F)F)nc5cc(CN6CC[C@@H](O)C6)cnc45)c3C)c2Cl)nc2c1CCN(CC(=O)O)C2 [Compound 23]
